From ChEMBL document CHEMBL1201862, “PubChem BioAssay data set” (2004)
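Results reflect a 48-hour exposure of cells in 96-well plates to compound at five concentrations. Abbreviation: GI50, concentration required for 50% inhibition of growth.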 Activity calls are given as the source filed them. No stated cut-off is given here; in the data, active = GI50 up to about 1.1 µM and inactive = higher.

What was measured:
Experiment in all cases: inhibition of tumour cell growth, NCI panel, 48 h
HT-29 = tested on: HT-29
COLO 205 = tested on: COLO 205
NCI-H23 = tested on: NCI-H23
OVCAR-5 = tested on: OVCAR-5
RXF 393 = tested on: RXF 393
OVCAR-8 = tested on: OVCAR-8
SR = tested on: SR
K562 = tested on: K562
SK-MEL-5 = tested on: SK-MEL-5
SF-539 = tested on: SF-539
KM12 = tested on: KM12
A498 = tested on: A498
SK-MEL-28 = tested on: SK-MEL-28
UO-31 = tested on: UO-31
NCI-H460 = tested on: NCI-H460

Measured: GI50

COC1=C(C)C(=O)c2c(cc3c(c2O)C(C)(CCC=C(C)C)C(C)O3)C1=O (stereo not given)
inactive: HT-29 37 µM | COLO 205 > 100 µM | NCI-H23 9.71 µM | OVCAR-5 > 100 µM | RXF 393 > 100 µM | OVCAR-8 > 100 µM | SR > 85.7 µM | K562 > 54.8 µM | SK-MEL-5 13.4 µM | SF-539 > 100 µM | KM12 > 55.7 µM | A498 16.3 µM | SK-MEL-28 > 100 µM | UO-31 > 100 µM | NCI-H460 14.1 µM

COc1ccc(O)cc1C=O
inactive: HT-29 > 100 µM | COLO 205 > 100 µM | NCI-H23 > 100 µM | OVCAR-5 > 100 µM | RXF 393 > 100 µM | OVCAR-8 > 100 µM | SR 18.8 µM | K562 33.9 µM | SK-MEL-5 61 µM | SF-539 > 100 µM | KM12 23.8 µM | A498 > 100 µM | SK-MEL-28 65.3 µM | UO-31 > 100 µM | NCI-H460 > 100 µM

CCCCCC/C=C1\CCC(CN2CCCC2)C1=O (stereo not given)
inactive: HT-29 13.9 µM | COLO 205 16.4 µM | NCI-H23 16.9 µM | OVCAR-5 18.3 µM | RXF 393 19.4 µM | OVCAR-8 17.2 µM | SR 2.99 µM | K562 3.87 µM | SK-MEL-5 18.6 µM | SF-539 19 µM | KM12 3.56 µM | A498 22.8 µM | SK-MEL-28 19.1 µM | UO-31 18.9 µM | NCI-H460 24.6 µM

Cn1ncnc1CCc1ccccc1
inactive: HT-29 > 100 µM | COLO 205 > 100 µM | NCI-H23 > 100 µM | OVCAR-5 > 100 µM | RXF 393 > 100 µM | OVCAR-8 > 100 µM | SR > 100 µM | K562 > 100 µM | SK-MEL-5 > 100 µM | SF-539 > 100 µM | KM12 > 100 µM | A498 > 100 µM | SK-MEL-28 > 100 µM | UO-31 > 100 µM | NCI-H460 > 100 µM

NS(=O)(=O)c1ccc(NC(=O)c2cccn3c(=O)c4ccccc4nc23)cc1
inactive: HT-29 > 100 µM | COLO 205 > 100 µM | NCI-H23 > 100 µM | RXF 393 > 100 µM | OVCAR-8 > 100 µM | SR 79.8 µM | K562 > 100 µM | SK-MEL-5 > 100 µM | SF-539 > 100 µM | KM12 41.2 µM | A498 > 100 µM | SK-MEL-28 > 100 µM | UO-31 85.5 µM | NCI-H460 > 100 µM

COC(=O)C(=O)C(C(=O)C=C(C)C)C(=O)C(=O)Nc1ccc(Cl)cc1C (stereo not given)
inactive: HT-29 > 100 µM | COLO 205 > 100 µM | NCI-H23 > 100 µM | OVCAR-5 > 100 µM | RXF 393 > 100 µM | OVCAR-8 > 100 µM | SR 23.3 µM | K562 71.8 µM | SK-MEL-5 > 100 µM | SF-539 > 100 µM | KM12 > 100 µM | A498 > 100 µM | SK-MEL-28 > 100 µM | UO-31 > 100 µM | NCI-H460 > 100 µM

C/C=C(/CCC1NCCC2c3ccccc3NC12)[Si](C)(C)C (stereo not given)
inactive: HT-29 2.83 µM | COLO 205 1.69 µM | NCI-H23 13.8 µM | OVCAR-5 7.28 µM | RXF 393 6.53 µM | OVCAR-8 7.98 µM | SR 2.9 µM | K562 2.75 µM | SK-MEL-5 12.8 µM | SF-539 15.8 µM | KM12 4.52 µM | SK-MEL-28 5.2 µM | UO-31 7.08 µM | NCI-H460 3.3 µM

COC(=O)CC[C@]12C[C@]13CC[C@]1(C)C4C(C)C[C@]5(CC(C)C(=O)O5)OC4CC1(C)C3CCC2C(C)(C)O (stereo not given in full)
inactive: HT-29 > 100 µM | COLO 205 74.8 µM | NCI-H23 97.3 µM | OVCAR-5 > 100 µM | RXF 393 46.8 µM | OVCAR-8 41.7 µM | SR 42.2 µM | K562 49.9 µM | SK-MEL-5 35.6 µM | SF-539 50.6 µM | KM12 48.3 µM | A498 > 100 µM | SK-MEL-28 84.9 µM | UO-31 59.2 µM | NCI-H460 68.7 µM

Oc1c2c(nc3cc4c(cc13)OCO4)-c1ccccc1CC2
inactive: HT-29 > 100 µM | COLO 205 > 100 µM | NCI-H23 > 100 µM | RXF 393 78 µM | OVCAR-8 > 100 µM | SR > 100 µM | K562 > 100 µM | SK-MEL-5 > 100 µM | SF-539 > 100 µM | A498 > 100 µM | SK-MEL-28 > 100 µM | UO-31 > 100 µM | NCI-H460 > 100 µM

COc1ccc(C2S/C(=C\c3cccc(O)c3)C(=O)N2NC(=O)Cc2ccccc2)cc1 (stereo not given)
inactive: HT-29 > 100 µM | COLO 205 > 100 µM | NCI-H23 > 100 µM | OVCAR-5 > 100 µM | RXF 393 12 µM | OVCAR-8 > 100 µM | SR > 100 µM | K562 > 100 µM | SK-MEL-5 > 100 µM | SF-539 > 100 µM | KM12 > 100 µM | A498 > 100 µM | UO-31 > 100 µM | NCI-H460 > 100 µM
